Laboratory results taken from patent US10882835B2 (Imago Biosciences, Inc., priority 2013, dated 2021).
pIC50: −log10 of the molar value.

tested on: not listed separately; assay: Metabolic stability in murine liver microsomes; type: in vitro ADME; conditions: mouse liver microsomes, 2 μM compound, NADPH
Description: The metabolic stability of compounds disclosed herein in pooled human liver microsomes (HLM) and pooled male mouse liver microsomes (MMLM) was determined according to the following protocol, in which the concentrations of compounds in reaction systems were evaluated by LC/MS/MS for estimating the stability in liver microsomes.
Pooled human liver microsomes (HMMCPL; PL050B) and pooled male mouse liver microsomes (MSMCPL; MS033) were purchased from CellzDirect (Invitrogen). Microsomes were stored at −80 C prior to use.
A master solution was prepared containing microsome (stock concentration 5 mg/mL, volume 50 μL, final concentration 0.5 mg/mL), MgCl2 solution (stock concentration 50 mM, volume 50 μL, final concentration 5 mM), phosphate buffer (stock concentration 200 mM, volume 250 μL, final concentration 100 mM), and water (volume […]. Five μL of 200 μM test compounds or control solution (control compound: verapamil) was then added. The final concentration of test compounds or verapamil in the reaction system was 2 μM. The mixture was pre-warmed at 37 C for 5 min.
The reaction was started with the addition of 50 μL of 10 mM NADPH solution at the final concentration of 1 mM and carried out at 37 C. 50 μL of ultra-pure H2O was used instead of NADPH solution in the negative control.
Aliquots of 50 μL were taken from the reaction solution at 0 and 30 min. The reaction was stopped by the addition of 3 volumes of cold methanol with IS (200 nM imipramine, 200 nM labetalol and 2 μM ketoprofen) at the designated time points. Samples were centrifuged at 16,000 g for 10 minutes to precipitate protein. Aliquot of 100 μL of the supernatant was diluted by 100 μL ultra-pure H2O, and the mixture was used for LC/MS/MS analysis. All experiments were performed in duplicate.
Samples were analyzed using liquid chromatography-mass spectrometry. The LC system comprised a Shimadzu liquid chromatograph separation system equipped with degasser DGU-20A3, solvent delivery unit LC-20AD, system controller CBM-20A, column oven CTO-10ASVP and CTC Analytics HTC PAL System. Chromatographic conditions included a Phenomenex column, 5.0μ C18 (2.0×50 mm); a mobile phase of 0.1% formic acid in acetonitrile and 0.1% formic acid in water; an elution rate of 500 μL/min; column temperature 25 C; injection volume 10 μL. Mass spectrometric analysis was performed using an API 4000 instrument from AB Inc. (Canada) with an ESI interface. The data acquisition and control system were created using Analyst 1.5.1 software from ABI Inc. A turbo spray ion source and electrospray ionization were employed in a multiple reaction monitoring (MRM) scan. Additional parameters included: collision gas, 6 L/min; curtain gas, 30 L/min; nebulize gas, 50 L/min; auxiliary gas, 50 L/min; temperature, 500 C; ionspray voltage, +5500 v (positive MRM). Quadripoles Q1 and Q3 were set to 456.2 and 200.2, respectively; declustering potential (DP), entrance potential (EP), and collision cell entrance potential (CE) were set to 120, 10, and 55 v, respectively; collision cell exit potential (CXP) was 12 v.
All calculations were carried out using Microsoft Excel. Peak areas were determined from extracted ion chromatograms. The control compounds were included in the assay. Any value of the compounds that was not within the specified limits was rejected and the experiment was repeated. The reaction system without the cofactors was used to exclude the misleading factor that resulted from instability of chemical itself.

% at 30 min, MLM	SMILES
− (− is <20%)	O=C(N[C@@H](CCCCN[C@@H]1C[C@H]1c1ccc(F)cc1)C(=O)N1CCCCC1)c1ccc(C(F)(F)F)cc1 [Example 14, N—((S)-6-(((1R,2S)-2-(4-fluorophenyl)cyclopropyl)amino)-1-oxo-1-(piperidin-1-yl)hexan-2-yl)-4-(trifluoromethyl)benzamide]
− (− is <20%)	O=C(N[C@@H](CCCCN[C@@H]1C[C@H]1c1ccc(F)cc1)C(=O)N1CCCCC1)c1ccc(-c2ccccc2)cc1 [Example 15, N—((S)-6-(((1R,2S)-2-(4-fluorophenyl)cyclopropyl)amino)-1-oxo-1-(piperidin-1-yl)hexan-2-yl)-[1,1′-biphenyl]-4-carboxamide]
+ (+ is ≥20%)	O=C(N[C@@H](CCCCN[C@@H]1C[C@H]1c1ccc(F)cc1)C(=O)N1CCOCC1)c1ccccc1 [Example 11, N—((S)-6-(((1R,2S)-2-(4-fluorophenyl)cyclopropyl)amino)-1-morpholino-1-oxohexan-2-yl)benzamide]
− (− is <20%)	O=C(N[C@@H](COCCN[C@@H]1C[C@H]1c1ccc(F)cc1)C(=O)N1CCOCC1)c1ccc(F)cc1 [Example 20, 4-fluoro-N—((S)-3-(2-(((1R,2S)-2-(4-fluorophenyl)cyclopropyl)amino)ethoxy)-1-morpholino-1-oxopropan-2-yl)benzamide]
− (− is <20%)	CS(=O)(=O)N1CCN(C(=O)[C@H](CCCN[C@@H]2C[C@H]2c2ccc(F)cc2)NC(=O)c2ccc(F)cc2)CC1 [Example 29, 4-fluoro-N-[(2S)-5-[[(1R,2S)-2-(4-fluorophenyl)cyclopropyl]amino]-1-(4-methanesulfonylpiperazin-1-yl)-1-oxopentan-2-yl]benzamide]
+ (+ is ≥20%)	CN1CCN(C(=O)[C@H](CCCC(=O)N[C@@H]2C[C@H]2c2ccc(F)cc2)NC(=O)c2ccc(F)cc2)CC1 [Example 24, 4-fluoro-N—((S)-6-((1R,2S)-2-(4-fluorophenyl)cyclopropylamino)-1-(4-methylpiperazin-1-yl)-1,6-dioxohexan-2-yl)benzamide]
+ (+ is ≥20%)	COc1ccc([C@@H]2C[C@H]2NC(=O)CCC[C@H](NC(=O)c2ccc(F)cc2)C(=O)N2CCN(C)CC2)cc1 [Example 26, 4-fluoro-N—((S)-6-((1R,2S)-2-(4-methoxyphenyl)cyclopropylamino)-1-(4-methylpiperazin-1-yl)-1,6-dioxohexan-2-yl)benzamide]
− (− is <20%)	O=C(CN[C@@H]1C[C@H]1c1ccc(F)cc1)NC[C@H](NC(=O)c1ccc(F)cc1)C(=O)N1CCOCC1 [Example 21, 4-fluoro-N—((S)-3-(2-(((1R,2S)-2-(4-fluorophenyl)cyclopropyl)amino)acetamido)-1-morpholino-1-oxopropan-2-yl)benzamide]
+ (+ is ≥20%)	COc1ccc([C@@H]2C[C@H]2NC(=O)COC[C@H](NC(=O)c2ccc(F)cc2)C(=O)N2CCOCC2)cc1 [Example 25, 4-fluoro-N—((S)-3-(2-((1R,2S)-2-(4-methoxyphenyl)cyclopropylamino)-2-oxoethoxy)-1-morpholino-1-oxopropan-2-yl)benzamide]

target: KDM1A (LSD1) (Homo sapiens (Human), UniProt O60341); assay: 10-dose IC50 fluorescence coupling enzyme assay, LSD1 demethylase activity on histone H3(1-21)K4me2 peptide (HRP/Amplex Red); type: biochemical; conditions: 10 μM histone H3(1-21)K4me2 peptide substrate

pIC50	SMILES
> 6.00	O=C(N[C@@H](CCCCN[C@@H]1C[C@H]1c1ccc(F)cc1)C(=O)N1CCCCC1)c1ccc(C(F)(F)F)cc1 [Example 14, N—((S)-6-(((1R,2S)-2-(4-fluorophenyl)cyclopropyl)amino)-1-oxo-1-(piperidin-1-yl)hexan-2-yl)-4-(trifluoromethyl)benzamide]
> 6.00	O=C(N[C@@H](CCCCN[C@@H]1C[C@H]1c1ccc(F)cc1)C(=O)N1CCCCC1)c1cnc[nH]1 [Example 23, N—((S)-6-((1R,2S)-2-(4-fluorophenyl)cyclopropylamino)-1-oxo-1-(piperidin-1-yl)hexan-2-yl)-1H-imidazole-5-carboxamide]
> 6.00	O=C(N[C@@H](CCCCN[C@@H]1C[C@H]1c1ccc(F)cc1)C(=O)N1CCOCC1)c1ccccc1 [Example 11, N—((S)-6-(((1R,2S)-2-(4-fluorophenyl)cyclopropyl)amino)-1-morpholino-1-oxohexan-2-yl)benzamide]
> 6.00	O=C(N[C@@H](CCCCN[C@@H]1C[C@H]1c1ccccc1)C(=O)N1CCCC1)c1ccccc1 [Example 1, N—((S)-1-oxo-6-(((1R,2S)-2-phenylcyclopropyl)amino)-1-(pyrrolidin-1-yl)hexan-2-yl)benzamide]
> 6.00	CCN(CC)C(=O)[C@H](CCCCN[C@@H]1C[C@H]1c1ccccc1)NC(=O)c1ccccc1 [Example 5]
